Assays:
AML target cells = conditions: co-therapy of lintuzumab and 5-azacytidine; cited from earlier work
AML cells or macrophages = conditions: incubation of AML cells or macrophages; cited from earlier work
KG-1a cells [1] = assay: CD33 expression by flow cytometry (PE anti-CD33 P67.6) after pretreatment with epigenetic drug; format: cell-based, human; conditions: 3-day pretreatment, relative to untreated
Description: CD33 expression on parental AML cells and cell lines was quantified by flow cytometry using a phycoerythrin (PE)-conjugated anti-CD33 antibody (clone P67.6; BD Biosciences, San Jose, Calif., USA) (see Walter et al. Blood. 2005; 105(3):1295-1302).

primary AML cells = assay: Hydroxyurea up-regulation of CD33 on primary AML cells, flow cytometry; format: cell-based
Method: Three primary AML samples were seeded in a 12-well plates at 1×10^6 cells/ml, as previously described (Krupka, Subklewe et. al, Blood 2014). Cells were either left untreated (UT) or treated with 10 μM (H1) or 100 μM (H2) hydroxyurea (Sigma) for three consecutive days (day 0, day 1 and day 2). On day 1-day 3, cells were harvested, counted and analyzed for changes in CD33 surface expression by flow cytometry.

PL21 AML cells = assay: Hydroxyurea up-regulation of CD33 on AML cell lines, flow cytometry; format: cell-based; conditions: for CD33 MFI Ratio: day 3, untreated 166.9
Method: (§1) AML cell lines HL-60, PL21, OCI-AML3, KG1a and MV4-11 were seeded in 24-well plates at 1×10^6 cells/ml on day 0. Cells were either left untreated (UT) or treated with 10 μM (H1) or 100 μM (H2) hydroxyurea (Sigma) for three consecutive days (day 0, day 1 and day 2). On day 3, cells were harvested, counted and analyzed for changes in CD33 surface expression level by flow cytometry.

HL-60 AML cells = assay: as above; format: cell-based; conditions: for CD33 MFI Ratio: day 3, untreated 134.9
Method: as §1

OCI-AML3 cells = assay: AMG 330-induced cytotoxicity with healthy donor T-cells (DAPI, 48 h) after epigenetic drug pretreatment; format: cell-based, human; conditions: 3-day pretreatment, relative to untreated cells
Method: Parental OCI-AML3 and KG-1a cells were either left untreated or pretreated with panobinostat for 72 hours. […] 48 hours later, cell counts were determined and cytotoxicity was assessed with DAPI staining to quantify drug-specific cytotoxicity. Results are shown as mean±SEM from 3 independent experiments performed in duplicate wells using a single healthy donor as source for exogenous T-cells.
(§2) For the experimental settings mononuclear cells were collected from healthy adult volunteers via leukapheresis, and T cells enriched through magnetic cell sorting (Pan T Cell Isolation Kit II; Miltenyi Biotec, Auburn, Calif.). Thawed cell aliquots were labeled with 3 μM CellVue Burgundy (eBioscience, San Diego, Calif.) according to the manufacturer's instructions.
(§3) For the quantification of compound induces cytotoxicity AML cells were taken during exponential growth and incubated at 37° C. […] After 48 hours, cell numbers and drug-induced cytotoxicity, using 4′,6-diamidino-2-phenylindole (DAPI) to detect non-viable cells, were determined using a LSRII flow cytometer (BD Biosciences, San Jose, Calif.) and analyzed with FlowJo (Tree Star, Ashland, Oreg.). AML cells were identified by forward/side scatter properties and negativity for CellVue Burgundy dye.

KG-1a cells [2] = assay: as above; conditions: 3-day pretreatment, relative to untreated cells
Method: Parental OCI-AML3 and KG-1a cells were either left untreated or pretreated with panobinostat for 72 hours. […] 48 hours later, cell counts were determined and cytotoxicity was assessed with DAPI staining to quantify drug-specific cytotoxicity.
Parental KG-1a cells were either left untreated or pretreated with azacitidine for 72 hours. […] 48 hours later, cell counts were determined and cytotoxicity was assessed with DAPI staining to quantify drug-specific cytotoxicity.
as §2, §3

[3] = biological target: T1, CD19 B-cell surface antigen and CD3 (Homo sapiens, UniProt P07766+P15391); conditions: patients with B-cell lymphomas and B precursor ALL; cited from earlier work
T1 construct: host or cells: patients (endogenous CD19 on B cells, CD3 epsilon on T cells)

CD33 = biological target: T2, CD33 (Homo sapiens, UniProt P20138); conditions: cited from earlier work
T2 construct: myeloid differentiation antigen found on AML blasts in most patients; host or cells: AML patients (endogenous CD33 on blasts)
T2 sequence (P20138 18-364): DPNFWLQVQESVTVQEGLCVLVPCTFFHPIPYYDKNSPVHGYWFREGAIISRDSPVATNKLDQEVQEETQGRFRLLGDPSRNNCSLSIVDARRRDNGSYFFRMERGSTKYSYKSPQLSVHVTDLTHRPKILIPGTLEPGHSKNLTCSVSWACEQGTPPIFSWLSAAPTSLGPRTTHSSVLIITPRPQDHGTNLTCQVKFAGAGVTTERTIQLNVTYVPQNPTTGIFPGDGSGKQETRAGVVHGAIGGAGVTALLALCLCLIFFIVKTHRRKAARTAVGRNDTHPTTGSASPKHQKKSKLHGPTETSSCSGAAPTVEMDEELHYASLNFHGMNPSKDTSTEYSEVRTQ

## Nc1ncn([C@@H]2O[C@H](CO)[C@@H](O)[C@H]2O)c(=O)n1 [azacitidine, 5-azacytidine]
AML target cells
  lintuzumab-mediated ADCC: improved
AML cells or macrophages
  CD33 expression: did not affect
KG-1a cells [1]
  CD33 expression: significant increase

## NC(=O)NO [hydroxyurea, Hydroxyurea]
Primary AML cells; primary AML cells patient 2, day 1, H1 = 10 μM hydroxyurea, untreated 3.7
  CD33 MFI Ratio: 4.2
Primary AML cells; primary AML cells patient 2, day 1, H2 = 100 μM hydroxyurea, untreated 3.7
  CD33 MFI Ratio: 4.5
Primary AML cells; primary AML cells patient 2, day 2, H1 = 10 μM hydroxyurea, untreated 4.8
  CD33 MFI Ratio: 4.2
Primary AML cells; primary AML cells patient 2, day 2, H2 = 100 μM hydroxyurea, untreated 4.8
  CD33 MFI Ratio: 5.1
Primary AML cells; three primary AML samples, day 1 and day 2 of incubation
  up-regulation of CD33 in patient samples (in words): up-regulation of CD33 in 1 of 3 patient samples
PL21 AML cells; PL21, H1 = 10 μM hydroxyurea on three consecutive days
  CD33 MFI Ratio: 177.9
PL21 AML cells; PL21, H2 = 100 μM hydroxyurea on three consecutive days
  CD33 MFI Ratio: 191.8
PL21 AML cells; PL21 AML cells, 10 and 100 μM
  upregulation of CD33 (in words): upregulation of CD33
HL-60 AML cells; HL-60, H1 = 10 μM hydroxyurea on three consecutive days
  CD33 MFI Ratio: 171.3
HL-60 AML cells; HL-60, H2 = 100 μM hydroxyurea on three consecutive days
  CD33 MFI Ratio: 210.0
HL-60 AML cells; HL-60 AML cells, 10 and 100 μM
  upregulation of CD33 (in words): upregulation of CD33

## Cc1[nH]c2ccccc2c1CCNCc1ccc(/C=C/C(=O)NO)cc1 [panobinostat]
OCI-AML3 cells
  sensitivity to AMG 330-induced cytotoxicity: modestly more sensitive
KG-1a cells [2]
  sensitivity to AMG 330-induced cytotoxicity: modestly more sensitive

## blinatumomab: bispecific antibody directed at CD19 and the CD3 component of the T-cell receptor complex
[3]
  therapeutic efficacy: therapeutic efficacy was shown

## lintuzumab: intact humanized CD33 antibody
CD33; phase III trial, combined with a triple chemotherapy regimen
  survival benefit: no survival benefit
CD33; single-agent phase I and II trial
  clinical response: complete remission in individual patients

Source: US10933132B2, “Combination of epigenetic factors and bispecific compounds targeting CD33 and CD3 in the treatment of myeloid leukemia” (AMGEN RESEARCH (MUNICH) GMBH, priority 2013, dated 2021)
